The NIST ThermoML archive (doi:10.1016/j.jct.2017.11.012)

Details: for mass density: 101.33 kPa, Liquid, Buoyancy - hydrostatic balance with magnetic suspension - one sinker

CCC[n+]1ccn(C)c1.[Br-] [1-methyl-3-propylimidazolium bromide]
surface tension liquid-gas [mN/m]
Details | Ring tensiometer | Wilhelmy Plate
328.53 K | – | 55.02
328.55 K | 55.07 | –
333.09 K | – | 54.74
333.1 K | 55.08 | –
337.75 K | 54.69 | 54.46
343.78 K | 54.17 | –
343.8 K | – | 53.93
347.98 K | 53.66 | –
348.01 K | – | 53.75
352.22 K | – | 53.51
352.34 K | 53.52 | –
358.15 K | 52.86 | –
358.17 K | – | 53.09
362.78 K | 52.94 | –
362.89 K | – | 52.72

Details | mass density [kg/m3]
333.07 K | 1332.55
337.73 K | 1329.41
343.74 K | 1325.39
347.91 K | 1322.26
352.28 K | 1318.84
358.1 K | 1314.79
362.76 K | 1310.9

Br.Cn1ccnc1 [1-methylimidazolium bromide]
surface tension liquid-gas [mN/m]
Details | Ring tensiometer | Wilhelmy Plate
323.07 K | 67.99 | 68.35
328.84 K | 67.68 | 67.81
332.74 K | – | 67.37
332.76 K | 67.45 | –
337.93 K | 67.14 | –
338.02 K | – | 66.81
344.29 K | 66 | –
344.42 K | – | 66.16
347.21 K | 65.6 | –
347.25 K | – | 65.85
353.02 K | 64.6 | –
353.08 K | – | 65.23
358.29 K | 64.85 | –
358.33 K | – | 64.67
364.65 K | 64.42 | –
364.75 K | – | 63.96

Details | mass density [kg/m3]
328.83 K | 1557.9
332.76 K | 1554.36
337.92 K | 1550.16
344.29 K | 1544.92
347.1 K | 1542.88
353.02 K | 1538.47
358.15 K | 1534.17
364.58 K | 1530.63

CCCCCn1cc[n+](C)c1.[Br-] [1-pentyl-3-methylimidazolium bromide]
Details | mass density [kg/m3]
298.49 K | 1262.83
303.3 K | 1259.38
308.12 K | 1256.49
313.27 K | 1252.83
318.27 K | 1249.49
323.3 K | 1245.55
327.41 K | 1242.66
333.16 K | 1239.16
338.01 K | 1236.12
343.01 K | 1232.8
348.13 K | 1229.53
353.01 K | 1226.21
358.12 K | 1222.61
362.97 K | 1219.41

Details | surface tension liquid-gas [mN/m]
333.23 K, Ring tensiometer | 41.96
333.26 K, Wilhelmy Plate | 41.79
338.06 K, Ring tensiometer | 41.95
338.08 K, Wilhelmy Plate | 41.6
343.07 K, Ring tensiometer | 41.84
343.09 K, Wilhelmy Plate | 41.38
348.23 K, Ring tensiometer | 41.59
348.26 K, Wilhelmy Plate | 41.18
353.11 K, Ring tensiometer | 41.45
353.13 K, Wilhelmy Plate | 41
358.22 K, Ring tensiometer | 41.24
358.24 K, Wilhelmy Plate | 40.81
363.07 K, Ring tensiometer | 41.04
363.12 K, Wilhelmy Plate | 40.6

CCCCCCn1cc[n+](C)c1.[Br-] [3-hexyl-1-methyl-1H-imidazolium bromide]
surface tension liquid-gas [mN/m]
Details | Ring tensiometer | Wilhelmy Plate
288.65 K | 40.83 | –
293.93 K | 40.58 | –
298.48 K | 40.31 | –
303.39 K | 40.14 | –
303.45 K | – | 39.75
308.08 K | 39.96 | –
308.14 K | – | 39.56
313.4 K | 39.68 | –
313.41 K | – | 39.34
318.16 K | 39.45 | 39.12
323.29 K | – | 38.8
323.34 K | 39.07 | –
328.24 K | – | 38.58
328.26 K | 38.83 | –
333.84 K | 38.51 | –
333.86 K | – | 38.26
338.01 K | 38.31 | –
338.05 K | – | 38.08
343.05 K | 38.09 | –
343.07 K | – | 37.86
348.61 K | 37.8 | –
348.66 K | – | 37.51
352.53 K | 37.43 | –
352.73 K | – | 37.37
358.19 K | 37.28 | –
358.21 K | – | 37.02
360.12 K | 37.19 | –
360.23 K | – | 36.96

Details | mass density [kg/m3]
288.7 K | 1235.51
293.91 K | 1231.69
298.52 K | 1228.13
303.43 K | 1224.72
308.13 K | 1220.87
313.41 K | 1216.98
318.19 K | 1213.32
323.33 K | 1209.5
328.2 K | 1205.7
333.8 K | 1201.57
338.04 K | 1198.15
343.07 K | 1195.21
348.64 K | 1191.41
352.79 K | 1188.62
358.28 K | 1185.22
360.63 K | 1183.34
